# From patent US11753418B2, “Compounds for the modulation of Myc activity” (Syros Pharmaceuticals, Inc., priority 2015, dated 2023)
# Structures can show the parent of a compound that is named as a salt.
# Biological target: T1, c-Myc/Max/Ebox DNA (Homo sapiens, UniProt P01106)
# T1 construct: his6 (cleaved yes)
# Assay: c-Myc/Max/Ebox DNA AlphaScreen Assay
# Format: binding
# Conditions: free c-Myc 20 nM, his6-Max 5 nM, biotinylated Ebox oligo 10 nM, 2 hour incubation
# Description: Compounds of the invention were assayed for c-Myc/Max/EBox activity as described in the following protocol. Human his6-c-Myc and his6-Max were used with biotinylated DNA containing a single Ebox sequence (biotin[…]) purchased from MWG Operon. Free c-Myc was generated from his6-c-Myc through thrombin cleavage of the his6 tag. For 384-well plate assays, 10 μL of a 2× solution of free c-Myc (20 nM final), Ni^2+ coated Acceptor Beads (25 μg/ml final), and biotinylated Ebox oligo (10 nM final) were added to 384-well plates with a Biotek EL406 liquid handler. 50 nL of compounds from stock plates were added by pin transfer using a Janus Workstation (PerkinElmer), allowing the compounds to interact with c-Myc prior to c-Myc binding with Max. In the current assay, DMSO was not allowed to exceed 2% v/v of the assay. 10 μl of 2× master mix containing streptavidin-coated donor beads (25 μg/ml final) and his6-Max (5 nM) were added. AlphaScreen measurements were performed on an Envision plate reader (PerkinElmer) utilizing the manufacturer's protocol.
# Both master mixes were made in room temperature assay buffer (50 mM HEPES, 150 mM NaCl, 0.2% w/v BSA, 0.02% w/v Tween20, 40 μg/ml glycogen, 500 μM DTT, pH 8.0, wherein both DTT and glycogen were added fresh). Alpha beads were added to respective master solutions. All subsequent steps were performed in low light conditions. Solution 1: 2× solution of components with final concentrations of c-Myc Ni-coated Acceptor Beads (25 μg/ml), and biotinylated Ebox oligo (10 nM). Solution 2: 2× solution of streptavidin-coated donor beads (25 μg/ml final) and his6-Max […]. Solution 1 was added to 384-well plate (AlphaPlate-384, PerkinElmer) with Biotek EL406 liquid handler and the plates were centrifuged very briefly. 50 nL of compounds from stock plates were added by pin transfer using a Janus Workstation. Solution 2 (10 μL) was added with the liquid handler. Plates were sealed with foil to block light exposure and prevent evaporation. Plates were very briefly centrifuged followed by 2 hour incubation. AlphaScreen measurements were performed on an Envision 2104 utilizing the manufacturer's protocol. Excitation was at 680 nm for donor bead release of singlet oxygen and emission was read with a bandpass filter from 520-620 nm. Glycogen: Roche Diagnostics #10901393001. Plate 1536: Perkin Elmer, 6004350. Plate 384: Perkin Elmer, 6005350. Nickel-His Alpha Beads: 6760619R. The data from this assay are summarized in Table 3 below (Myc/Max/DNA Activity).
# T1 sequence (P01106 whole entry): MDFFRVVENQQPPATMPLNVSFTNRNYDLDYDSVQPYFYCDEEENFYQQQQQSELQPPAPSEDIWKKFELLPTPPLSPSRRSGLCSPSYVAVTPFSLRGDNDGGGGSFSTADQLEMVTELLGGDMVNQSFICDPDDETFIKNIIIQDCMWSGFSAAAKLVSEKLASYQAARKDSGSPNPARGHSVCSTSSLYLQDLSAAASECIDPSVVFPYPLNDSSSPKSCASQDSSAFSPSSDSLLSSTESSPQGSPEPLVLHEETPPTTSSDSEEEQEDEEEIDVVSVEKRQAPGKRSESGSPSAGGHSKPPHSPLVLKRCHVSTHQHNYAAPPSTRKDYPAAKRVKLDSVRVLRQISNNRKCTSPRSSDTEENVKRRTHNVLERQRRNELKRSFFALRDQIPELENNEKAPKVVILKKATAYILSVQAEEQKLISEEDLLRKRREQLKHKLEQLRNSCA
row,IC50 [nM],Compound
1,500 to 5000,Cc1cc(CNCCC(=O)Nc2sc3c(c2-c2nc4cnccc4s2)CCNC3)no1 [Compound 191]
2,500 to 5000,CC(C)c1nc(CNCCC(=O)Nc2sc3c(c2-c2nc4cnccc4s2)CCNC3)no1 [Compound 179]
3,500 to 5000,"CC(=O)Nc1sc2c(c1-c1nc3cnccc3s1)CNC2 [Compound 102, N-(3-(thiazolo[4,5-c]pyridin-2-yl)-5,6-dihydro-4H-thieno[2,3-c]pyrrol-2-yl)acetamide]"
4,< 500,CN(C)C1CN(CCC(=O)Nc2sc3c(c2-c2nc4cnccc4s2)CCNC3)C1 [Compound 161]
5,< 500,COCC1CCCCN1CCC(=O)Nc1sc2c(c1-c1nc3cnccc3s1)CCNC2 (stereo not shown) [Compound 152]
6,< 500,O=C(CCN1C[C@H]2CN[C@H]2C1)Nc1sc2c(c1-c1nc3cnccc3s1)CCNC2 [Compound 154]
7,< 500,O=C(CCNCC1(O)CC1)Nc1sc2c(c1-c1nc3cnccc3s1)CCNC2 [Compound 210]
8,< 500,O=C(CCN1CCCOCC1)Nc1sc2c(c1-c1nc3cnccc3s1)CCNC2 [Compound 170]
9,< 500,O=C(CCNCc1ncon1)Nc1sc2c(c1-c1nc3cnccc3s1)CCNC2 [Compound 181]
10,500 to 5000,O=C(CCNC(CO)c1ccc(F)cc1)Nc1sc2c(c1-c1nc3cnccc3s1)CCNC2 (stereo not shown) [Compound 139]
11,500 to 5000,O=C(CCN1CC(F)(F)C1)Nc1sc2c(c1-c1nc3cnccc3s1)CCNC2 [Compound 194]
12,< 500,CC1(C)CCCN1CCC(=O)Nc1sc2c(c1-c1nc3cnccc3s1)CCNC2 [Compound 164]
13,500 to 5000,CC1CN(CCC(=O)Nc2sc3c(c2-c2nc4cnccc4s2)CCNC3)CC(=O)N1 (stereo not shown) [Compound 144]
14,< 500,O=C(CCNCc1ncc[nH]1)Nc1sc2c(c1-c1nc3cnccc3s1)CCNC2 [Compound 215]
15,< 500,O=C(CCN1CC2(CCOC2)C1)Nc1sc2c(c1-c1nc3cnccc3s1)CCNC2 [Compound 125]
16,< 500,NC(=O)C1(CNCCC(=O)Nc2sc3c(c2-c2nc4cnccc4s2)CCNC3)CCOCC1 [Compound 202]
17,< 500,O=C(CCNCc1cscn1)Nc1sc2c(c1-c1nc3cnccc3s1)CCNC2 [Compound 160]
18,< 500,CC(C)C[C@H](CO)NCCC(=O)Nc1sc2c(c1-c1nc3cnccc3s1)CCNC2 [Compound 138]
19,< 500,O=C(CCNCCN1CCNCC1)Nc1sc2c(c1-c1nc3cnccc3s1)CCNC2 [Compound 193]
20,5000 to 25000,CC(NCCC(=O)Nc1sc2c(c1-c1nc3cnccc3s1)CCNC2)c1nc2ccccc2[nH]1 (stereo not shown) [Compound 197]
21,< 500,O=C(CCNCc1[nH]nc2c1CNC2)Nc1sc2c(c1-c1nc3cnccc3s1)CCNC2 [Compound 200]
22,< 500,O=C(CCNCC12CC(CN1)C2)Nc1sc2c(c1-c1nc3cnccc3s1)CCNC2 [Compound 174]
23,< 500,O=C(CCN1CCC2OCCC2C1)Nc1sc2c(c1-c1nc3cnccc3s1)CCNC2 (stereo not shown) [Compound 208]

row,IC50 [nM],Compound
1,< 500,O=C(CCN1CCC(OC2CCC2)CC1)Nc1sc2c(c1-c1nc3cnccc3s1)CCNC2 [Compound 149]
2,< 500,"O=C(CCNC1CCC1)Nc1sc2c(c1-c1nc3cnccc3s1)CCNC2 [Compound 222, 3-(cyclobutylamino)-N-(3-(thiazolo[4,5-c]pyridin-2-yl)-4,5,6,7-tetrahydrothieno[2,3-c]pyridin-2-yl)propanamide]"
3,< 500,O=C(CCNCc1ccno1)Nc1sc2c(c1-c1nc3cnccc3s1)CCNC2 [Compound 141]
4,< 500,O=C(CCNCc1ccn[nH]1)Nc1sc2c(c1-c1nc3cnccc3s1)CCNC2 [Compound 166]
5,< 500,CC1CC1NCCC(=O)Nc1sc2c(c1-c1nc3cnccc3s1)CCNC2 (stereo not shown) [Compound 145]
6,500 to 5000,CN1CCN(CCC(=O)Nc2sc3c(c2-c2nc4cnccc4s2)CCNC3)CC1=O [Compound 162]
7,500 to 5000,Cc1ncc(CNCCC(=O)Nc2sc3c(c2-c2nc4cnccc4s2)CCNC3)s1 [Compound 186]
8,500 to 5000,O=C(CCN1CCn2nccc2C1)Nc1sc2c(c1-c1nc3cnccc3s1)CCNC2 [Compound 198]
9,< 500,O=C(CCN1CCC2(CCOC2)C1)Nc1sc2c(c1-c1nc3cnccc3s1)CCNC2 (stereo not shown) [Compound 126]
10,< 500,C[C@@H](NCCC(=O)Nc1sc2c(c1-c1nc3cnccc3s1)CCNC2)c1cnc2ccccn12 [Compound 192]
11,< 500,Cc1ccsc1CNCCC(=O)Nc1sc2c(c1-c1nc3cnccc3s1)CCNC2 [Compound 171]
12,< 500,O=C(CCNCC1CCCC1)Nc1sc2c(c1-c1nc3cnccc3s1)CCNC2 [Compound 175]
13,< 500,O=C(CCN[C@H]1CC[C@@H](O)C1)Nc1sc2c(c1-c1nc3cnccc3s1)CCNC2 [Compound 204]
14,< 500,O=C(CCN[C@H]1COC[C@@H]1O)Nc1sc2c(c1-c1nc3cnccc3s1)CCNC2 [Compound 148]
15,< 500,O=C(CCNCC1CCOCC1)Nc1sc2c(c1-c1nc3cnccc3s1)CCNC2 [Compound 189]
16,< 500,CN(C)[C@H]1CCN(CCC(=O)Nc2sc3c(c2-c2nc4cnccc4s2)CCNC3)C1 [Compound 150]
17,500 to 5000,"CC(=O)Nc1sc2c(c1-c1nc3cnccc3s1)CCN(CCN)C2 [Compound 121, N-(6-(2-aminoethyl)-3-(thiazolo[4,5-c]pyridin-2-yl)-4,5,6,7-tetrahydrothieno[2,3-c]pyridin-2-yl)acetamide hydrochloride]"
18,< 500,COC(=O)CCCNCCC(=O)Nc1sc2c(c1-c1nc3cnccc3s1)CCNC2 [Compound 168]
19,500 to 5000,O=C(CCN1CC2(C1)CS(=O)(=O)C2)Nc1sc2c(c1-c1nc3cnccc3s1)CCNC2 [Compound 128]
20,< 500,N[C@@H]1[C@H]2CN(CCC(=O)Nc3sc4c(c3-c3nc5cnccc5s3)CCNC4)C[C@@H]12 [Compound 187]
21,> 25000,COCCNCCC(=O)Nc1sc2c(c1-c1nc3cncnc3s1)CCNC2 [Compound 252]
22,< 500,O=C(CCN1CCC[C@@]2(CCCN2)C1)Nc1sc2c(c1-c1nc3cnccc3s1)CCNC2 [Compound 124]
23,500 to 5000,CC1(C#N)CN(CCC(=O)Nc2sc3c(c2-c2nc4cnccc4s2)CCNC3)C1 [Compound 196]

row,Compound,IC50 [nM]
1,CCN1[C@H](C)Cc2c(sc(NC(C)=O)c2-c2nc3cnccc3s2)[C@@H]1C [Compound 254],> 25000
2,"CC(=O)Nc1sc2c(c1-c1nc3cnccc3s1)C(C)CNC2 (stereo not shown) [Compound 104, N-(4-methyl-3-(thiazolo[4,5-c]pyridin-2-yl)-4,5,6,7-tetrahydrothieno[2,3-c]pyridin-2-yl)acetamide]",500 to 5000
3,CCN1[C@H](C)c2sc(NC(C)=O)c(-c3nc4cnccc4s3)c2C[C@@H]1C [Compound 253],< 500
4,"CC(=O)Nc1sc2c(c1-c1nc3cnccc3s1)CC(C)NC2C (mixture of isomers) [Compound 109, N-(5,7-dimethyl-3-(thiazolo[4,5-c]pyridin-2-yl)-4,5,6,7-tetrahydrothieno[2,3-c]pyridin-2-yl)acetamide]",500 to 5000
5,CC(=O)Nc1sc2c(c1-c1nc3cnccc3s1)CCN(CCN1CCOCC1)C2 [Compound 112],5000 to 25000
6,"CC(=O)Nc1sc2c(c1-c1nc3cnccc3s1)CCN(C(C)C)C2 [Compound 115, N-(6-isopropyl-3-(thiazolo[4,5-c]pyridin-2-yl)-4,5,6,7-tetrahydrothieno[2,3-c]pyridin-2-yl)acetamide]",500 to 5000
